# System: Spodoptera exigua
# Assay: whole plant or invertebrate
# Type: in vivo
# Conditions: Spodoptera exigua, 24 h, read-out: Spodoptera exigua Mortality (%) 500 ppm
# Summary of the method: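 Leaf immersion feeding: second-instar larvae (about 35 per vessel, triplicate) kept at 28° C on discs treated with 500 ppm test solution in 0.05% Tween-80. Mortality at 24 h, calculated relative to surviving larvae in the solvent control.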
row,SMILES,mortality at 500 ppm
1,CC(=O)c1nn2c(c1[S+](C)[O-])NC(CC#N)(C(=O)O)c1cc(C(F)(F)F)cc(Cl)c1-2 (centres unmarked) [Compound C43],89%
2,CNC(=O)C1(CC#N)Nc2c([S+](C)[O-])c(C(C)=O)nn2-c2c(Cl)cc(C(F)(F)F)cc21 (centres unmarked) [Compound C45],97%
3,CNC(=O)C1(CC(=O)OC)Nc2c([S+](C)[O-])c(C(C)=O)nn2-c2c(Cl)cc(C(F)(F)F)cc21 (centres unmarked) [Compound C46],91%
4,C=CC1Nc2c(-c3cc(C)oc3C)c(C#N)nn2-c2c(Cl)cc(C(F)(F)F)cc21 (centres unmarked) [Compound C50],86%
5,N#Cc1nn2c(c1[S+]([O-])C(F)(F)F)NC(C(O)CO)c1cc(C(F)(F)F)cc(Cl)c1-2 (centres unmarked) [Compound C51],85%
6,Cc1cc(-c2c(C#N)nn3c2NC(C(O)CO)c2cc(C(F)(F)F)cc(Cl)c2-3)c(C)o1 (centres unmarked) [Compound C52],91%
7,N#Cc1nn2c(c1[S+]([O-])C(F)(F)F)NC(CC(F)(F)F)(C(O)CO)c1cc(C(F)(F)F)cc(Cl)c1-2 (centres unmarked) [Compound C56],87%
8,COC(=O)/C=C/C1(CC#N)Nc2c([S+]([O-])C(F)(F)F)c(C#N)nn2-c2c(Cl)cc(C(F)(F)F)cc21 (centres unmarked) [Compound C58],100%

# System: Bombyx mori L.
# Assay: Toxicity test on 2nd-instar larvae of Bombyx mori L., leaf immersion feeding method
# Type: in vivo
# Conditions: 1000 ppm, 24 hours
# Summary of the method: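 Second-instar silkworm larvae (~35 per vessel, 3 replicates) fed mulberry leaves dipped 5 s in 1000 ppm compound (0.05% Tween-80; DMSO stock diluted), held at 25 °C. Deaths counted after 24 hours; mortality % corrected against Tween-80 control survivors.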
row,SMILES,Toxicity determination Bombyx mori L. Mortality (%)
1,CC(=O)c1nn2c(c1[S+](C)[O-])NC(CC#N)(C(=O)O)c1cc(C(F)(F)F)cc(Cl)c1-2 (centres unmarked) [Compound C43],0%
2,CNC(=O)C1(CC#N)Nc2c([S+](C)[O-])c(C(C)=O)nn2-c2c(Cl)cc(C(F)(F)F)cc21 (centres unmarked) [Compound C45],6%
3,CNC(=O)C1(CC(=O)OC)Nc2c([S+](C)[O-])c(C(C)=O)nn2-c2c(Cl)cc(C(F)(F)F)cc21 (centres unmarked) [Compound C46],5%
4,C=CC1Nc2c(-c3cc(C)oc3C)c(C#N)nn2-c2c(Cl)cc(C(F)(F)F)cc21 (centres unmarked) [Compound C50],5%
5,N#Cc1nn2c(c1[S+]([O-])C(F)(F)F)NC(C(O)CO)c1cc(C(F)(F)F)cc(Cl)c1-2 (centres unmarked) [Compound C51],9%
6,Cc1cc(-c2c(C#N)nn3c2NC(C(O)CO)c2cc(C(F)(F)F)cc(Cl)c2-3)c(C)o1 (centres unmarked) [Compound C52],10%
7,N#Cc1nn2c(c1[S+]([O-])C(F)(F)F)NC(CC(F)(F)F)(C(O)CO)c1cc(C(F)(F)F)cc(Cl)c1-2 (centres unmarked) [Compound C56],6%
8,COC(=O)/C=C/C1(CC#N)Nc2c([S+]([O-])C(F)(F)F)c(C#N)nn2-c2c(Cl)cc(C(F)(F)F)cc21 (centres unmarked) [Compound C58],4%

# System: Plutella xylostella
# Assay: whole plant or invertebrate
# Type: in vivo
# Conditions: Plutella xylostella, read-out: Plutella xylostella Mortality (%) 500 ppm
# Summary of the method: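 Leaf immersion feeding test: 2nd-instar larvae (about 35 per vessel, 3 replicates) kept at 28° C. on 1.0 cm cabbage discs soaked 5 s in a 500 ppm solution with 0.05% Tween-80. Mortality after 24 h of exposure, calculated relative to live larvae in the Tween-80 control.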
row,SMILES,mortality at 500 ppm
1,CC(=O)c1nn2c(c1[S+](C)[O-])NC(CC#N)(C(=O)O)c1cc(C(F)(F)F)cc(Cl)c1-2 (centres unmarked) [Compound C43],86%
2,CNC(=O)C1(CC#N)Nc2c([S+](C)[O-])c(C(C)=O)nn2-c2c(Cl)cc(C(F)(F)F)cc21 (centres unmarked) [Compound C45],93%
3,CNC(=O)C1(CC(=O)OC)Nc2c([S+](C)[O-])c(C(C)=O)nn2-c2c(Cl)cc(C(F)(F)F)cc21 (centres unmarked) [Compound C46],89%
4,C=CC1Nc2c(-c3cc(C)oc3C)c(C#N)nn2-c2c(Cl)cc(C(F)(F)F)cc21 (centres unmarked) [Compound C50],81%
5,N#Cc1nn2c(c1[S+]([O-])C(F)(F)F)NC(C(O)CO)c1cc(C(F)(F)F)cc(Cl)c1-2 (centres unmarked) [Compound C51],87%
6,Cc1cc(-c2c(C#N)nn3c2NC(C(O)CO)c2cc(C(F)(F)F)cc(Cl)c2-3)c(C)o1 (centres unmarked) [Compound C52],90%
7,N#Cc1nn2c(c1[S+]([O-])C(F)(F)F)NC(CC(F)(F)F)(C(O)CO)c1cc(C(F)(F)F)cc(Cl)c1-2 (centres unmarked) [Compound C56],82%
8,COC(=O)/C=C/C1(CC#N)Nc2c([S+]([O-])C(F)(F)F)c(C#N)nn2-c2c(Cl)cc(C(F)(F)F)cc21 (centres unmarked) [Compound C58],100%

# System: Aphis craccivora
# Assay: whole plant or invertebrate
# Type: in vivo
# Conditions: Aphis craccivora, 24 h, read-out: Aphis craccivora Mortality (%) 500 ppm
# Summary of the method: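 Mortality scored 24 h after treatment as the reduction in live aphids versus a 0.05% Tween-80 control; three replicates, 23° C. Treatment was a 5 s immersion of wingless adults on bean sprouts in 500 ppm test solution containing 0.05% Tween-80, followed by air-drying.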
row,SMILES,mortality at 500 ppm
1,CC(=O)c1nn2c(c1[S+](C)[O-])NC(CC#N)(C(=O)O)c1cc(C(F)(F)F)cc(Cl)c1-2 (centres unmarked) [Compound C43],95%
2,CNC(=O)C1(CC#N)Nc2c([S+](C)[O-])c(C(C)=O)nn2-c2c(Cl)cc(C(F)(F)F)cc21 (centres unmarked) [Compound C45],86%
3,CNC(=O)C1(CC(=O)OC)Nc2c([S+](C)[O-])c(C(C)=O)nn2-c2c(Cl)cc(C(F)(F)F)cc21 (centres unmarked) [Compound C46],90%
4,C=CC1Nc2c(-c3cc(C)oc3C)c(C#N)nn2-c2c(Cl)cc(C(F)(F)F)cc21 (centres unmarked) [Compound C50],90%
5,N#Cc1nn2c(c1[S+]([O-])C(F)(F)F)NC(C(O)CO)c1cc(C(F)(F)F)cc(Cl)c1-2 (centres unmarked) [Compound C51],79%
6,Cc1cc(-c2c(C#N)nn3c2NC(C(O)CO)c2cc(C(F)(F)F)cc(Cl)c2-3)c(C)o1 (centres unmarked) [Compound C52],100%
7,N#Cc1nn2c(c1[S+]([O-])C(F)(F)F)NC(CC(F)(F)F)(C(O)CO)c1cc(C(F)(F)F)cc(Cl)c1-2 (centres unmarked) [Compound C56],91%
8,COC(=O)/C=C/C1(CC#N)Nc2c([S+]([O-])C(F)(F)F)c(C#N)nn2-c2c(Cl)cc(C(F)(F)F)cc21 (centres unmarked) [Compound C58],100%

# System: Apis cernan
# Assay: Toxicity test on adult worker bees of Apis cernan, small beaker method
# Type: in vivo
# Conditions: 500 ppm, 48 hours
# Summary of the method: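 Same-size adult Apis cernan workers, collected the test morning, exposed in groups of 15 to cotton soaked with 500 ppm test liquid (small beaker method). Kept sealed in a dark climate box; live and dead bees counted after 48 h.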
row,SMILES,Toxicity determination Apis cernan Mortality (%)
1,CC(=O)c1nn2c(c1[S+](C)[O-])NC(CC#N)(C(=O)O)c1cc(C(F)(F)F)cc(Cl)c1-2 (centres unmarked) [Compound C43],4%
2,CNC(=O)C1(CC#N)Nc2c([S+](C)[O-])c(C(C)=O)nn2-c2c(Cl)cc(C(F)(F)F)cc21 (centres unmarked) [Compound C45],3%
3,CNC(=O)C1(CC(=O)OC)Nc2c([S+](C)[O-])c(C(C)=O)nn2-c2c(Cl)cc(C(F)(F)F)cc21 (centres unmarked) [Compound C46],3%
4,C=CC1Nc2c(-c3cc(C)oc3C)c(C#N)nn2-c2c(Cl)cc(C(F)(F)F)cc21 (centres unmarked) [Compound C50],2%
5,N#Cc1nn2c(c1[S+]([O-])C(F)(F)F)NC(C(O)CO)c1cc(C(F)(F)F)cc(Cl)c1-2 (centres unmarked) [Compound C51],5%
6,Cc1cc(-c2c(C#N)nn3c2NC(C(O)CO)c2cc(C(F)(F)F)cc(Cl)c2-3)c(C)o1 (centres unmarked) [Compound C52],7%
7,N#Cc1nn2c(c1[S+]([O-])C(F)(F)F)NC(CC(F)(F)F)(C(O)CO)c1cc(C(F)(F)F)cc(Cl)c1-2 (centres unmarked) [Compound C56],8%
8,COC(=O)/C=C/C1(CC#N)Nc2c([S+]([O-])C(F)(F)F)c(C#N)nn2-c2c(Cl)cc(C(F)(F)F)cc21 (centres unmarked) [Compound C58],4%

# System: Solenopsis invicta
# Assay: whole plant or invertebrate
# Type: in vivo
# Conditions: Solenopsis invicta, 24 h, read-out: Solenopsis invicta Mortality (%) 100 ppm 24 h, 100 ppm; 24 h; water test tube poison-feeding
# Summary of the method: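 Mortality (%) of Solenopsis invicta, computed against live counts in control tubes, was recorded 24 h and 72 h after treatment at 25 °C. Compound was offered by oral feeding in test tubes at 100 ppm, diluted from a 10 g/L DMSO stock into water with 5% honey and 0.05% Tween-80.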
row,SMILES,mortality at 100 ppm
1,CC(=O)c1nn2c(c1[S+](C)[O-])NC(CC#N)(C(=O)O)c1cc(C(F)(F)F)cc(Cl)c1-2 (centres unmarked) [Compound C43],18%
2,CNC(=O)C1(CC#N)Nc2c([S+](C)[O-])c(C(C)=O)nn2-c2c(Cl)cc(C(F)(F)F)cc21 (centres unmarked) [Compound C45],25%
3,CNC(=O)C1(CC(=O)OC)Nc2c([S+](C)[O-])c(C(C)=O)nn2-c2c(Cl)cc(C(F)(F)F)cc21 (centres unmarked) [Compound C46],21%
4,C=CC1Nc2c(-c3cc(C)oc3C)c(C#N)nn2-c2c(Cl)cc(C(F)(F)F)cc21 (centres unmarked) [Compound C50],26%
5,N#Cc1nn2c(c1[S+]([O-])C(F)(F)F)NC(C(O)CO)c1cc(C(F)(F)F)cc(Cl)c1-2 (centres unmarked) [Compound C51],19%
6,Cc1cc(-c2c(C#N)nn3c2NC(C(O)CO)c2cc(C(F)(F)F)cc(Cl)c2-3)c(C)o1 (centres unmarked) [Compound C52],22%
7,N#Cc1nn2c(c1[S+]([O-])C(F)(F)F)NC(CC(F)(F)F)(C(O)CO)c1cc(C(F)(F)F)cc(Cl)c1-2 (centres unmarked) [Compound C56],27%
8,COC(=O)/C=C/C1(CC#N)Nc2c([S+]([O-])C(F)(F)F)c(C#N)nn2-c2c(Cl)cc(C(F)(F)F)cc21 (centres unmarked) [Compound C58],29%

# Same assay, conditions: Solenopsis invicta, 72 h, read-out: Solenopsis invicta Mortality (%) 100 ppm 72 h, 100 ppm; 72 h; water test tube poison-feeding
row,SMILES,mortality at 100 ppm
1,CC(=O)c1nn2c(c1[S+](C)[O-])NC(CC#N)(C(=O)O)c1cc(C(F)(F)F)cc(Cl)c1-2 (centres unmarked) [Compound C43],80%
2,CNC(=O)C1(CC#N)Nc2c([S+](C)[O-])c(C(C)=O)nn2-c2c(Cl)cc(C(F)(F)F)cc21 (centres unmarked) [Compound C45],71%
3,CNC(=O)C1(CC(=O)OC)Nc2c([S+](C)[O-])c(C(C)=O)nn2-c2c(Cl)cc(C(F)(F)F)cc21 (centres unmarked) [Compound C46],80%
4,C=CC1Nc2c(-c3cc(C)oc3C)c(C#N)nn2-c2c(Cl)cc(C(F)(F)F)cc21 (centres unmarked) [Compound C50],86%
5,N#Cc1nn2c(c1[S+]([O-])C(F)(F)F)NC(C(O)CO)c1cc(C(F)(F)F)cc(Cl)c1-2 (centres unmarked) [Compound C51],86%
6,Cc1cc(-c2c(C#N)nn3c2NC(C(O)CO)c2cc(C(F)(F)F)cc(Cl)c2-3)c(C)o1 (centres unmarked) [Compound C52],90%
7,N#Cc1nn2c(c1[S+]([O-])C(F)(F)F)NC(CC(F)(F)F)(C(O)CO)c1cc(C(F)(F)F)cc(Cl)c1-2 (centres unmarked) [Compound C56],80%
8,COC(=O)/C=C/C1(CC#N)Nc2c([S+]([O-])C(F)(F)F)c(C#N)nn2-c2c(Cl)cc(C(F)(F)F)cc21 (centres unmarked) [Compound C58],98%

# Source: US11401271B2, “Fused heterocyclic compound, pyrazole-ring-containing fused heterocyclic compound, agricultural composition containing thereof, and method of using the composition” (SOUTH CHINA AGRICULTURAL UNIVERSITY, priority 2017, dated 2022)
